Where “and” joins values, the source holds several entries; their conditions need not be identical. Identical values can stand only once. Like-named read-outs stand apart in the source and are kept apart here.
Columns and labels:
[1] = biological target: T1, PfcProRS (Plasmodium falciparum, UniProt Q8I5R7); assay type: binding; details: single replicates
T1 construct: made in house; host or cells: E. coli SoluBL-21

[2] = biological target: HsProRS (Homo sapiens, UniProt P07814); experiment: TR-FRET ligand displacement assay with tracer MAT379 (CoraFluor-1-Halo and anti-His6 antibody formats); assay type: binding; design: made in house; host or cells: E. coli SoluBL-21; details: for TR-FRET dose-response, normalized signal (SI Fig 11): individual replicates
Chain of HsProRS (P07814 996-1512): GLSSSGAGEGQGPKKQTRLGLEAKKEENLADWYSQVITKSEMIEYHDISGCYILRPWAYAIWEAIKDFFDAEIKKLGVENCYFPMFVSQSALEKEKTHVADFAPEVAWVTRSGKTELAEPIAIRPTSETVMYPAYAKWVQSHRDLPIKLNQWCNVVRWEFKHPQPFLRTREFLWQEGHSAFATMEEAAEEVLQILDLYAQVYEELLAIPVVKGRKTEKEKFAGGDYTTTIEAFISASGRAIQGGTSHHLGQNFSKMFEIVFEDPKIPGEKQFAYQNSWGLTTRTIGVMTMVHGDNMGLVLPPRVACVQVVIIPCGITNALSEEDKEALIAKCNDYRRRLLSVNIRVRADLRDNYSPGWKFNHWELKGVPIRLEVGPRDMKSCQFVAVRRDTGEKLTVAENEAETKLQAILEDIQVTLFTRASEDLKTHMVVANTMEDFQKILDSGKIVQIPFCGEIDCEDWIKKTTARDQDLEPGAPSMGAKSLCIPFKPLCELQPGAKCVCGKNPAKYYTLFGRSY

[3] = system: HFGR-I P. falciparum (elevated proline homeostasis and PfcProRS^L482H); experiment: P. falciparum ABS growth assay, SYBR Green, 72 h, HFGR-I parasites; assay type: cell-based, Plasmodium falciparum; details: for EC50: Plasmodium falciparum, DD2, read-out: Dd2 (EC50 [nM]) HFGR1 mean
From the text: (§1) Parasites were maintained under standard culture conditions as described previously[56],[57]. […] The P. falciparum Dd2 cell lines used in this study (Dd2-2D4, halofuginone-induced, and HFGR-I) have previously undergone whole genome sequencing in our labs. They were also routinely assayed and EC50 values determined using the ABS growth assay (see below) with a panel of standard antimalarial compounds, including halofuginone which has differential activity for the three Dd2 lines used in these experiments. Data were cross-referenced for consistency with literature reported values and data previously acquired in the lab.
(§2) This assay was performed as previously described. In short, P. falciparum erythrocytic-stage parasites at 1% parasitemia and 1% hematocrit in RPMI + 0.5% Albumax were seeded at 40 μL/well in 384-well plates with test compounds in triplicate, dose-response format with 10 μM dihydroartemisinin as a kill-control and blank (no compound) wells as a growth-control. […] After 72 h, growth was quantified by measuring fluorescence (Molecular Devices SpectraMax iD5) following SYBR Green 1 staining. Data were analyzed in Excel and plotted in PRISM (V. 8.4.3–9.1.0, GraphPad).

[4] = system: P. falciparum Dd2-2D4; experiment: P. falciparum asexual blood stage (ABS) growth assay, SYBR Green, 72 h, wild-type parasites; assay type: cell-based, Plasmodium falciparum; details: for EC50: Plasmodium falciparum, DD2
[5] = system: halofuginone-induced P. falciparum (elevated proline homeostasis); experiment: P. falciparum ABS growth assay, SYBR Green, 72 h, halofuginone-induced parasites; assay type: cell-based, Plasmodium falciparum; details: for EC50: Plasmodium falciparum, DD2
From the text: as §1, §2

[6] = HsProRS (KD [nM]) + 100 μM proline mean, + 100 μM proline
[7] = SI Fig 16b, values on -log scale, read-out: ABS - Dd2-2D4 (converted)
[8] = read-out: Dd2 (EC50 [nM]) halofuginone-induced mean

T1 sequence (Q8I5R7 249-746): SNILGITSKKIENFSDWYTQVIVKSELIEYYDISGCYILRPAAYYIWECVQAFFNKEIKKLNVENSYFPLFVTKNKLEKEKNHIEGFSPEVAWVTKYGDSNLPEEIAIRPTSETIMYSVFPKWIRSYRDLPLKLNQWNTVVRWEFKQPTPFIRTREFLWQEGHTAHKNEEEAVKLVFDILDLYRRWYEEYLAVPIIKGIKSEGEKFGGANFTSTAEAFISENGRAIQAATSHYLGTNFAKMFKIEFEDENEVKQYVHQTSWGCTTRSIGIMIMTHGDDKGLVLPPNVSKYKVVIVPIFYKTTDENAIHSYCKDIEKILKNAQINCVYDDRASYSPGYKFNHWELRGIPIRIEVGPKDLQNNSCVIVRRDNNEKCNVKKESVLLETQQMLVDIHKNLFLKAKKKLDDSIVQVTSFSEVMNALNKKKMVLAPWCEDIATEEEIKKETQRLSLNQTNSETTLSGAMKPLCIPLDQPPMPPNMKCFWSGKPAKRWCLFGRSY

In the case of O=C(NC1Cc2ccccc2C1)c1nccnc1NC(=O)N1CCC(CO)CC1 [compound 11], the “dose-response signal (normalized), SI Fig 8” value ([1]; Log[inhibitor] (M) -5.000) is reported as 5.60E-02 and 7.55E-02 and 4.27E-02, the “dose-response signal (normalized), SI Fig 8” value ([1]; Log[inhibitor] (M) -5.301) is reported as 7.92E-02 and 2.41E-02 and 4.88E-02 and the “dose-response signal (normalized), SI Fig 8” value ([1]; Log[inhibitor] (M) -5.601) is reported as 9.80E-02 and 1.87E-03 and 7.44E-02. The “dose-response signal (normalized), SI Fig 8” value ([1]; Log[inhibitor] (M) -5.904) was 2.50E-01 and 1.37E-01 and 2.03E-01, the “dose-response signal (normalized), SI Fig 8” value ([1]; Log[inhibitor] (M) -6.208) was 3.69E-01 and 3.33E-01 and 3.17E-01 and the “dose-response signal (normalized), SI Fig 8” value ([1]; Log[inhibitor] (M) -6.509) was 6.08E-01 and 6.11E-01 and 6.37E-01. For the same molecule, the “dose-response signal (normalized), SI Fig 8” value ([1]; Log[inhibitor] (M) -6.796) was 7.29E-01 and 7.94E-01 and 7.90E-01, the “dose-response signal (normalized), SI Fig 8” value ([1]; Log[inhibitor] (M) -7.108) was 8.18E-01 and 8.62E-01 and 9.40E-01 and the “dose-response signal (normalized), SI Fig 8” value ([1]; Log[inhibitor] (M) -7.409) was 1.03E+00 and 1.01E+00 and 8.87E-01. For the same molecule, the “dose-response signal (normalized), SI Fig 8” value ([1]; Log[inhibitor] (M) -7.710) was 1.08E+00 and 9.42E-01 and 9.86E-01, the “dose-response signal (normalized), SI Fig 8” value ([1]; Log[inhibitor] (M) -8.000) was 1.04E+00 and 9.91E-01 and 1.06E+00 and the “dose-response signal (normalized), SI Fig 8” value ([1]; Log[inhibitor] (M) -8.301) was 1.09E+00 and 1.02E+00 and 1.00E+00. For the same molecule, the “dose-response signal (normalized), SI Fig 8” value ([1]; Log[inhibitor] (M) -8.602) was 1.07E+00 and 9.31E-01 and 1.05E+00, the “dose-response signal (normalized), SI Fig 8” value ([1]; Log[inhibitor] (M) -9.000) was 8.46E-01 and 1.03E+00 and 9.88E-01 and the “dose-response signal (normalized), SI Fig 8” value ([1]; Log[inhibitor] (M) -9.301) was 1.09E+00 and 1.13E+00 and 1.15E+00. For the same molecule, the Kd [2, 6] was 8.42 nM, the Kd ([2]; HsProRS (KD [nM]) mean, no added proline/ATP (-)) was 265 nM and the “normalized TR-FRET ligand displacement signal, dose-response replicates (SI Fig 6)” value ([2]; Log[inhibitor] (M) -5.000) was 7.29E-02 and 8.36E-02 and 3.81E-02. The “TR-FRET dose-response, normalized signal (SI Fig 11)” value ([2]; Log[inhibitor] (M) -5.000) was -1.28E-03 and -3.43E-02 and 2.65E-03, the “normalized TR-FRET ligand displacement signal, dose-response replicates (SI Fig 6)” value ([2]; Log[inhibitor] (M) -5.301) was 1.45E-01 and 1.02E-01 and 9.61E-02 and the “TR-FRET dose-response, normalized signal (SI Fig 11)” value ([2]; Log[inhibitor] (M) -5.301) was 2.77E-02 and 5.85E-02 and -1.28E-02. For the same molecule, the “normalized TR-FRET ligand displacement signal, dose-response replicates (SI Fig 6)” value ([2]; Log[inhibitor] (M) -5.601) was 2.34E-01 and 2.43E-01 and 2.83E-01, the “TR-FRET dose-response, normalized signal (SI Fig 11)” value ([2]; Log[inhibitor] (M) -5.601) was 8.35E-02 and 4.98E-02 and 9.15E-02 and the “normalized TR-FRET ligand displacement signal, dose-response replicates (SI Fig 6)” value ([2]; Log[inhibitor] (M) -5.904) was 4.84E-01 and 4.37E-01 and 4.52E-01. For the same molecule, the “TR-FRET dose-response, normalized signal (SI Fig 11)” value ([2]; Log[inhibitor] (M) -5.904) was 2.07E-01 and 2.25E-01 and 2.22E-01, the “normalized TR-FRET ligand displacement signal, dose-response replicates (SI Fig 6)” value ([2]; Log[inhibitor] (M) -6.208) was 6.54E-01 and 5.62E-01 and 6.80E-01 and the “TR-FRET dose-response, normalized signal (SI Fig 11)” value ([2]; Log[inhibitor] (M) -6.208) was 3.66E-01 and 3.44E-01 and 3.52E-01. The “normalized TR-FRET ligand displacement signal, dose-response replicates (SI Fig 6)” value ([2]; Log[inhibitor] (M) -6.509) was 6.98E-01 and 7.35E-01 and 8.42E-01, the “TR-FRET dose-response, normalized signal (SI Fig 11)” value ([2]; Log[inhibitor] (M) -6.509) was 5.64E-01 and 5.20E-01 and 5.33E-01 and the “normalized TR-FRET ligand displacement signal, dose-response replicates (SI Fig 6)” value ([2]; Log[inhibitor] (M) -6.796) was 1.06E+00 (2×) and 1.05E+00. For the same molecule, the “TR-FRET dose-response, normalized signal (SI Fig 11)” value ([2]; Log[inhibitor] (M) -6.796) was 7.28E-01 and 6.74E-01 and 6.24E-01, the “normalized TR-FRET ligand displacement signal, dose-response replicates (SI Fig 6)” value ([2]; Log[inhibitor] (M) -7.108) was 8.92E-01 and 1.10E+00 and 9.75E-01 and the “TR-FRET dose-response, normalized signal (SI Fig 11)” value ([2]; Log[inhibitor] (M) -7.108) was 7.19E-01 and 7.66E-01 and 7.53E-01. The “normalized TR-FRET ligand displacement signal, dose-response replicates (SI Fig 6)” value ([2]; Log[inhibitor] (M) -7.409) was 9.25E-01 and 9.47E-01 and 1.04E+00, the “TR-FRET dose-response, normalized signal (SI Fig 11)” value ([2]; Log[inhibitor] (M) -7.409) was 8.67E-01 and 8.81E-01 and 8.44E-01 and the “normalized TR-FRET ligand displacement signal, dose-response replicates (SI Fig 6)” value ([2]; Log[inhibitor] (M) -7.710) was 9.81E-01 and 9.55E-01 and 9.75E-01. For the same molecule, the “TR-FRET dose-response, normalized signal (SI Fig 11)” value ([2]; Log[inhibitor] (M) -7.710) was 9.29E-01 and 8.46E-01 and 9.70E-01, the “normalized TR-FRET ligand displacement signal, dose-response replicates (SI Fig 6)” value ([2]; Log[inhibitor] (M) -8.000) was 9.65E-01 and 1.05E+00 and 9.80E-01 and the “TR-FRET dose-response, normalized signal (SI Fig 11)” value ([2]; Log[inhibitor] (M) -8.000) was 9.63E-01 and 9.74E-01 and 9.23E-01. The “normalized TR-FRET ligand displacement signal, dose-response replicates (SI Fig 6)” value ([2]; Log[inhibitor] (M) -8.301) was 1.00E+00 and 9.43E-01 and 1.07E+00, the “TR-FRET dose-response, normalized signal (SI Fig 11)” value ([2]; Log[inhibitor] (M) -8.301) was 9.20E-01 and 9.31E-01 and 8.90E-01 and the “normalized TR-FRET ligand displacement signal, dose-response replicates (SI Fig 6)” value ([2]; Log[inhibitor] (M) -8.602) was 1.02E+00 (2×) and 9.43E-01. For the same molecule, the “TR-FRET dose-response, normalized signal (SI Fig 11)” value ([2]; Log[inhibitor] (M) -8.602) was 8.99E-01 and 8.64E-01 and 8.60E-01, the “normalized TR-FRET ligand displacement signal, dose-response replicates (SI Fig 6)” value ([2]; Log[inhibitor] (M) -9.000) was 9.86E-01 and 1.02E+00 and 1.11E+00 and the “TR-FRET dose-response, normalized signal (SI Fig 11)” value ([2]; Log[inhibitor] (M) -9.000) was 9.04E-01 and 9.68E-01 and 8.68E-01. The “normalized TR-FRET ligand displacement signal, dose-response replicates (SI Fig 6)” value ([2]; Log[inhibitor] (M) -9.301) was 1.03E+00 (2×) and 9.04E-01, the “TR-FRET dose-response, normalized signal (SI Fig 11)” value ([2]; Log[inhibitor] (M) -9.301) was 8.86E-01 and 9.16E-01 and 9.33E-01 and the “dose-response value, Replicates 1-3 (SI Fig 2f)” value ([3]; Log[inhibitor] (M) -5.000) was 0. The EC50 [3] was 1910 nM, the EC50 [4, 7] was 711 nM and the “dose-response value, Replicates 1-3 (SI Fig 2e)” value ([5]; Log[inhibitor] (M) -5.408) was 12. For the same molecule, the EC50 [5, 8] was 2470 nM.

In the case of Nc1ncnc2c1ncn2[C@@H]1O[C@H](COS(=O)(=O)NC(=O)[C@H]2CCCN2)[C@@H](O)[C@H]1O [D-ProSA, reference compound], the EC50 [3] is reported as 2430 nM, the EC50 [4, 7] is reported as 2550 nM and the EC50 ([4]; read-out: Dd2 (EC50 [nM]) wildtype (Dd2-2D4) mean) is reported as 2550 nM. For the same molecule, the EC50 [5, 8] was 2730 nM.

CC(C)N(C(=O)Nc1nccnc1C(=O)NC1Cc2ccccc2C1)C(C)C [MAT107 (5)] was tested, and the IC50 [2] was greater than 10 µM, the Kd [2, 6] was 1020 nM and the “HsProRS % signal at 10 μM” value ([2]; no added proline/ATP (-), 10 μM) was 63.6%. For the same molecule, the EC50 [3] was 6850 nM, the “% signal at 10 μM, wildtype (Dd2-2D4)” value ([4]; wildtype (Dd2-2D4), 10 μM) was 80.9% and the EC50 ([5]; halofuginone-induced, bound given in μM, read-out: Dd2 EC50 halofuginone-induced, bound) was greater than 10000 nM. The “% signal at 10 μM, halofuginone-induced” value ([5]; halofuginone-induced, 10 μM) was 58.7%.
